Tests used:
LOLMU = test: Herbicidal post-emergence action; format: in vivo; details: 80 g/ha, visual assessment after about three weeks, 100% = plants have died
Protocol: (§1) 2. Herbicidal Post-Emergence Action
(§2) • Seeds of monocotylidonous and dicotylidonous weed and crop plants are placed in sandy loam in wood fibre pots, covered with soil and cultivated in a greenhouse under good growth conditions. Two to three weeks after sowing, the test plants are treated at the one-leaf stage. The test compounds, formulated as wettable powders (WP), are then with a water application rate of 600 l/ha (converted), with 0.2% of wetting agent added, sprayed onto the green parts of the plants in different amounts. After the test plants have been kept in the greenhouse under optimum growth conditions for about three weeks, the effect of the preparations is assessed visually in comparison to untreated controls (herbicidal effect in percent: 100% effect=the plants have died, 0% effect=like control plants). Post-Emergence, 80 g/ha

ALOMY = test: Herbicidal post-emergence action; format: in vivo; details: 80 g/ha, visual assessment after about three weeks, 100% = plants have died
Protocol: as §1, §2

SETVI = test: Herbicidal post-emergence action; format: in vivo; details: visual assessment after about three weeks, 100% = plants have died; for pest or weed control at 80 g/ha: 504 h, read-out: herbicidal effect in percent, SETVI; for herbicidal effect in percent, SETVI: 80 g/ha
Protocol: as §1, §2

AVEFA = test: Herbicidal post-emergence action; format: in vivo; details: 80 g/ha, visual assessment after about three weeks, 100% = plants have died
Protocol: as §1, §2

POLCO = test: Herbicidal post-emergence action; format: in vivo; details: 80 g/ha, visual assessment after about three weeks, 100% = plants have died
Protocol: as §1, §2

[1] = system: green peach aphid (Myzus persicae); test: Myzus test (MYZUPE spray treatment); format: in vivo; details: application rate of 500 g/ha; Chinese cabbage leaf discs sprayed; after 6 days
Protocol: Solvents: 78 parts by weight of acetone
• 1.5 parts by weight of dimethylformamide Emulsifier: 0.5 part by weight of alkylaryl polyglycol ether
To produce a suitable preparation of active compound, one part by weight of active compound is mixed with the stated amounts of solvents and emulsifier, and the concentrate is diluted with emulsifier-containing water to the desired concentration.
Discs of Chinese cabbage leaves (Brassica pekinensis) which are infested by all stages of the green peach aphid (Myzus persicae) are sprayed with an active compound preparation of the desired concentration.
After 6 days, the effect in % is determined 100% means that all aphids have been killed; 0% means that none of the aphids have been killed.

[2] = system: monocotylidonous and dicotylidonous weed and crop plants; test: Herbicidal pre-emergence action; format: in vivo; details: 320 g/ha, visual assessment after three weeks, 100% = plants have died; for herbicidal effect in percent, AVEFA: AVEFA = Avena fatua; for herbicidal effect in percent, ECHCG: ECHCG = Echinochloa crus-galli; for herbicidal effect in percent, LOLMU: LOLMU = Lolium multiflorum; for herbicidal effect in percent, ALOMY: ALOMY = Alopecurus myosuroides; for herbicidal effect in percent, SETVI: SETVI = Setaria viridis; for herbicidal effect in percent, VIOTR: VIOTR = Viola tricolor
Text: 1. Herbicidal Pre-Emergence Action
• Seeds of monocotylidonous and dicotylidonous weed and crop plants are placed in sandy loam in wood fibre pots and covered with soil. The test compounds, formulated in the form of wettable powders (WP), are then, as an aqueous suspension with a water application rate of 600 l/ha (converted), with 0.2% of wetting agent added, applied to the surface of the covering soil in different amounts. • After the treatment, the pots are placed in a greenhouse and kept under good growth conditions for the test plants. The visual assessment of the emergence damage on the test plants is carried out after a trial period of three weeks by comparison with the untreated controls (herbicidal effect in percent: 100% effect=the plants have died, 0% effect=like control plants).

ECHCG = test: Herbicidal post-emergence action; format: in vivo; details: 80 g/ha, visual assessment after about three weeks, 100% = plants have died
Protocol: as §1, §2

VERPE = test: Herbicidal post-emergence action; format: in vivo; details: 80 g/ha, visual assessment after about three weeks, 100% = plants have died
Protocol: as §1, §2

[3] = system: larvae of the mustard beetle (Phaedon cochleariae); test: Phaedon test (PHAECO spray treatment); format: in vivo; details: application rate of 500 g/ha; Chinese cabbage leaf discs sprayed; after 7 days
Protocol: Phaedon Test […] Spray Treatment Solvents: 78.0 parts by weight of acetone • • 1.5 parts by weight of dimethylformamide Emulsifier: 0.5 part by weight of alkylaryl polyglycol ether To produce a suitable preparation of active compound, one part by weight of active compound is mixed with the stated amounts of solvents and emulsifier, and the concentrate is diluted with emulsifier-containing water to the desired concentration. Discs of Chinese cabbage leaves (Brassica pekinensis) are sprayed with an active compound preparation of the desired concentration and, after drying, populated with larvae of the mustard beetle (Phaedon cochleariae).

| SMILES | herbicidal effect in percent, LOLMU (LOLMU) | herbicidal effect in percent, ALOMY (ALOMY) | herbicidal effect in percent, AVEFA (AVEFA) | herbicidal effect in percent, AVEFA [2] | herbicidal effect in percent, ECHCG [2] | herbicidal effect in percent, LOLMU [2] | herbicidal effect in percent, ECHCG (ECHCG) | herbicidal effect in percent, SETVI (SETVI) | herbicidal effect in percent, ALOMY [2] | herbicidal effect in percent, SETVI [2] | also measured |
| --- | --- | --- | --- | --- | --- | --- | --- | --- | --- | --- | --- |
| CCc1cc(C)cc(CC)c1C1C(=O)C2CC(COCOC)CC2C1=O (stereo not drawn) [I-a-40, 2-(2,6-diethyl-4-methylphenyl)-5-methoxymethoxymethyltetrahydropentalene-1,3-dione] | 100% | 100% | 90% |  |  |  |  |  |  |  | pest or weed control at 80 g/ha (SETVI): 90%; herbicidal effect in percent, POLCO (POLCO): 100% |
| CCc1cc(C)cc(CC)c1C1=C(OCc2ccccc2)C2CC(C=CC#N)CC2C1=O (mixture of isomers) [I-a-59] |  |  |  |  |  |  |  |  |  |  | effect in % (aphids killed) [1]: 100% |
| CCc1cc(C)cc(CC)c1C1C(=O)C2CC(CO)CC2C1=O (stereo not drawn) [I-a-7] | 100% | 100% | 70% | 80% | 100% | 100% | 100% | 80% |  |  |  |
| CCc1cc(C)cc(CC)c1C1C(=O)C2CC(OC)CC2C1=O (stereo not drawn) [I-a-22] | 100% | 100% | 100% | 90% | 100% | 100% | 100% | 100% | 100% | 100% |  |
| CCc1cc(C)cc(CC)c1C1=C(O)C2CC(C=NOC)CC2C1=O (stereo not drawn) [I-a-13, 5-(2,6-diethyl-4-methylphenyl)-6-hydroxy-4-oxo-1,2,3,3a,4,6a-hexahydropentalene-2-carbaldehyde O-methyloxime] | 100% | 100% | 100% | 80% |  | 100% | 100% |  |  |  | herbicidal effect in percent, STEME ([2]; STEME = Stellaria media): 100%; herbicidal effect in percent, VERPE ([2]; VERPE = Veronica persica): 90%; herbicidal effect in percent, VIOTR [2]: 100%; pest or weed control at 80 g/ha (SETVI): 100% |
| C=C1CC2C(=O)C(c3c(CC)cc(C)cc3CC)=C(OCc3ccccc3)C2C1 (stereo not drawn) [I-a-0, 3-(Benzyloxy)-2-(2,6-diethyl-4-methylphenyl)-5-methylene-4,5,6,6a-tetrahydropentalen-1(3aH)-one] |  |  |  |  |  |  |  |  |  |  | melting point: 87 to 88 °C |
| CCc1cc(C)cc(CC)c1C1=C(OC(=O)C(C)(C)C)C2CC(C(OC)OC)CC2C1=O (mixture of isomers) [I-b-5] | 100% | 100% | 100% | 100% | 100% | 100% | 100% | 100% | 100% | 90% |  |
| CCOC(=O)OC1=C(c2c(CC)cc(C)cc2CC)C(=O)C2CC(C=CC#N)CC12 (mixture of isomers) [I-c-22] |  | 80% | 100% |  |  |  | 100% | 100% |  |  | effect in % (aphids killed) [1]: 100%; herbicidal effect in percent, VERPE (VERPE): 90% |
| CCc1cc(C)cc(CC)c1C1C(=O)C2CC(C(=O)OC)CC2C1=O (stereo not drawn) [I-a-9] | 100% | 100% | 90% | 80% | 100% | 100% | 100% | 100% | 100% | 90% |  |
| CCc1cc(C)cc(CC)c1C1C(=O)C2CC(O)CC2C1=O (stereo not drawn) [I-a-23] | 90% | 70% | 60% |  | 100% |  | 100% | 100% |  | 90% |  |
| CCc1cc(C)cc(CC)c1C1C(=O)C2CC(COC(=O)Nc3ccccc3)CC2C1=O (mixture of isomers) [I-a-44] |  |  |  |  |  |  |  |  |  |  | effect in % (beetle larvae killed) [3]: 100% |
| CCc1cc(C)cc(CC)c1C1=C(OC(=O)C(C)(C)C)C2CC(/C=N/OC)CC2C1=O (stereo not drawn) [I-b-1, 2-(2,6-Diethyl-4-methylphenyl)-5-(methoxyimino)methyl-3-oxo-3,3a,4,5,6,6a-hexahydropentalen-1-yl 2,2-dimethylpropanoate] | 100% | 100% | 100% | 90% | 100% | 100% | 100% |  | 100% | 100% | herbicidal effect in percent, VIOTR [2]: 90%; pest or weed control at 80 g/ha (SETVI): 100% |
| CCc1cc(C)cc(CC)c1C1C(=O)C2CC(CCC#N)CC2C1=O (mixture of isomers) [I-a-37] | 100% | 100% | 100% |  |  |  | 100% | 100% |  |  | herbicidal effect in percent, VERPE (VERPE): 80% |
| CCc1cc(C)cc(CC)c1C1C(=O)C2CC(C3OCCCO3)CC2C1=O (stereo not drawn) [I-a-5, 2-(2,6-Diethyl-4-methylphenyl)-5-(1,3-dioxan-2-yl)tetrahydropentalene-1,3(2H,3aH)-dione] | 100% | 100% | 100% | 90% |  | 100% | 100% |  | 100% | 90% | pest or weed control at 80 g/ha (SETVI): 100% |
| CCc1cc(C)cc(CC)c1C1C(=O)C2CC(COC(=O)NCc3ccccc3)CC2C1=O (mixture of isomers) [I-a-47] |  |  |  |  |  |  |  |  |  |  | effect in % (beetle larvae killed) [3]: 100% |
